Measurements: patent US20080287481A1, “PROCESS FOR THE PREPARATION OF DES[…] MIXTURES” (priority 2006, published 2008)

Details: all storage conditions of the table; consistency in the IR pattern
Text: The term “stable” is used to describe an intimate mixture of desloratadine Form I and Form II that maintains the initial weight ratio of forms during formulation into a pharmaceutical dosage form and thereafter during a commercially useful period of normal storage and use, such as about one year, about 18 months, about two years, or any other desired period. […] Stability testing procedures are well known in the pharmaceutical industry.

Clc1ccc2c(c1)CCc1cccnc1C2=C1CCNCC1 [8-chloro-6,11-dihydro-11-(4-piperidylidene)-5H-benzo[5,6]cyclohepta[1,2-b]pyridine]
interconversion of forms during the storage period: no interconversion of forms
